Measured values from article PMC5511861, “DS16570511 is a small-molecule inhibitor of the mitochondrial calcium uniporter” (Cell Death Discovery, 2017).

Experiments:
[1] = test system: mitochondrial Ca2+ levels in rat perfused heart; experiment: Mitochondrial Ca2+ overload in rat isolated perfused heart; conditions: 10 min pretreatment
Method: We investigated the effect of DS16570511 on mitochondrial Ca^2+ levels in a rat isolated perfused heart. In the normal condition of the perfusion assay, the Ca^2+ concentration of the perfusion buffer is 2.5 mM.[23] To induce mitochondrial Ca^2+ overload, Ca^2+ concentration in the perfusion buffer was increased from 2.5 mM to 5 mM or 7.5 mM.
Figure 6 DS16570511 inhibits mitochondrial Ca^2+ overload in isolated heart. Effect of DS16570511 on mitochondrial Ca^2+ levels in rat perfused heart. For induction of Ca^2+ overload in mitochondria ex vivo, Ca^2+ concentration was increased from 2.5 mM to 5 mM or 7.5 mM. The heart was treated with DS16570511 for 10 min before the high Ca^2+ treatment. Data are mean with S.E.M. from more than three independent samples.
The hearts were rapidly excised from 9-week-old male Wistar rats and perfused at 37 °C with Krebs-Ringer perfusion buffer (127.2 mM NaCl, 4.7 mM KCl, 2.5 mM CaCl2, 1.2 mM KH2PO4, 1.2 mM MgSO4, 25 mM NaHCO3 and 5.5 mM glucose (pH 7.4)) equilibrated with 95% O2/5% CO2. A balloon was inserted through the left atrium into the left ventricle. Heart rate and contractility were continuously recorded with a data acquisition system (PowerLab, ADInstruments, Bella Vista, NSW, Australia).

[2] = test system: Ca2+ uptake of rat heart mitochondria; experiment: Ca2+ uptake assay using isolated rat heart mitochondria (atomic absorbance spectrometer); assay type: biochemical; conditions: 100 μM CaCl2; read-out: IC50, inhibition of Ca2+ uptake of rat heart mitochondria
Method: We then asked whether DS16570511 inhibits Ca^2+ uptake in isolated mitochondria from animal heart. An atomic absorbance spectrometer-based detection method was employed to analyze intramitochondrial Ca^2+ levels. We prepared freshly isolated mitochondria from pig heart, and the mitochondria were incubated with 100 μM CaCl2.
Figure 3 DS16570511 inhibits Ca^2+ uptake in isolated heart mitochondria. (a) Effect of RuR on Ca^2+ uptake of pig heart mitochondria. […] Data are mean with S.E.M. from three independent samples. (b) Inhibition rate of RuR or DS16570511 on Ca^2+ uptake of pig heart mitochondria. Inhibition 0 or 100% is defined as a value of Ca^2+-untreated mitochondria or Ca^2+-treated mitochondria, respectively. Data are mean with S.E.M. from three independent samples. (c) Inhibition rate of RuR or DS16570511 on Ca^2+ uptake of rat heart mitochondria. Data are mean with S.E.M./variation from three or two independent samples for DS16570511 or RuR, respectively.
Mitochondria were isolated by using the mitochondria isolation kit and then dissolved in the swelling buffer. The protein concentration of the mitochondrial solution was 5 mg/ml. […] The solution was then diluted by water, and Ca^2+ concentration of the solution was measured by atomic absorbance spectrometer (Hitachi High-Technologies Corporation, Z-2710, Tokyo, Japan).

[3] = molecular target: T1, mitochondrial calcium uniporter (Homo sapiens, UniProt Q8NE86); experiment: Ca2+ uptake of isolated mitochondria from HEK293A cells (aequorin luminescence); assay type: biochemical; parameters: isolated mitochondria from HEK293A cells were used; endogenous in cells; host or cells: mitochondria isolated from HEK293A cells stably expressing mitochondria-targeted aequorin; conditions: 100 μM Ca2+, 5 min preincubation; read-out: IC50, inhibition of Ca2+ uptake of isolated mitochondria from HEK293A cells
T1 sequence (Q8NE86 51-351): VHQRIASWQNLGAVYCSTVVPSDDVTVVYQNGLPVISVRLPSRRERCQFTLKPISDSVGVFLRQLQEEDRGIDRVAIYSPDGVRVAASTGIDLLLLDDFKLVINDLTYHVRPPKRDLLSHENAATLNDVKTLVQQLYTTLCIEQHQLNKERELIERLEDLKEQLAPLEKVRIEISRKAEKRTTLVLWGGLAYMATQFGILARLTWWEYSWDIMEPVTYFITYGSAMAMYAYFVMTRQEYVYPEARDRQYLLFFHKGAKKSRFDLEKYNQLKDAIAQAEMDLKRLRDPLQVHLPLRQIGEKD
T1 sequence (Q9H4I9 48-107 partner limits assumed): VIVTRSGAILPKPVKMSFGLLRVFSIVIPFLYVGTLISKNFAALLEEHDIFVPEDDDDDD
Method: Mitochondrial Ca^2+ uptake activity is regulated by cytosolic protein kinase signaling,[19] raising the possibility that HTS hits contained indirect inhibitors of the uniporter, such as inhibitors of cytosolic signaling. To examine the direct inhibitory effect of the compounds on the mitochondrial Ca^2+ uptake, isolated mitochondria from HEK293A cells were used. Ca^2+ uptake of the isolated mitochondria was observed as a rapid increase in the luminescence level after application of 100 μM Ca^2+ (Figure 2a).
Figure 2 DS16570511 inhibits Ca^2+ uptake in isolated mitochondria from HEK293A cells. (a) Representative raw data of Ca^2+ uptake in isolated mitochondria. (b) Effect of DS16570511 or Ru360 on mitochondrial Ca^2+ uptake. The area under the curve of temporal aequorin activities is used for calculation of inhibitory activities. Inhibition 0 or 100% is defined as a value of […], respectively. Data are mean with S.E.M. from three independent samples.
To monitor Ca^2+ uptake activity of isolated mitochondria, mitochondria were prepared from the cells (1×10^8 cells) stably expressing mitochondria-targeted aequorin by using a mitochondria isolation kit. […] The luminescence levels were detected as described above.

Cc1onc(-c2c(Cl)cccc2Cl)c1CNc1cccc(C(=O)c2cn(CCCC(=O)O)c3ccccc23)c1 [DS16570511]
effect on mitochondrial Ca2+ level, normal buffer ([1]; 2.5 mM Ca2+ buffer, 30 μM): no significant effect
effect on mitochondrial Ca2+ increase induced by 5.0 mM Ca2+ buffer ([1]; 5.0 mM Ca2+ buffer): blocked
effect on mitochondrial Ca2+ overload induced by 7.5 mM Ca2+ buffer ([1]; 7.5 mM Ca2+ buffer): dose-dependently inhibited
IC50 [2]: 25 µM
IC50 [3]: 0.86 µM
